# Test system: Deroceras reticulatum
# Assay: Laboratory terraria barrier test on blotting paper (winter wheat seed hollowing, slug mortality)
# Assay type: in vivo
# Settings: for slug mortality: barrier on blotting paper
# Procedure: Plastic trays (0.07 m^2) were lined with unbleached blotting paper and saturated with de-ionised water. Three groups of eight winter wheat seeds were placed into each tray and each group surrounded with approximately 1-2 g of test material, forming a barrier with approximately 1 cm diameter. Four slugs (Deroceras reticulatum) pre-starved for 24-48 hours were introduced to the trays. The tests were performed under controlled conditions (12 hours light 15° C.: 12 hours dark 15° C., 90% humidity). Five replicates were prepared per condition.
# The trays were observed daily, for seven days, for seed hollowing and mortality. After the seven days, the slugs were replaced with naive slugs and the test run for a further seven days. Mortality was indicated by failure to respond to 12-volt D.C. stimuli.
# Note: i) In all the experiments, a negative control was prepared consisting of slugs only, sawdust only, or “alcoholic” sawdust. ii) Metaldehyde (4%) was used as a positive control, to compare the toxicity properties of the 100% plant raw materials, rather than as a physical barrier.
# The method is identical to that used in Example 1 above.
compound,measurement,setting,value
"CC1OC(C)OC(C)OC(C)O1 (stereo not drawn) [metaldehyde (4%), metaldehyde]",seed hollowing,"barrier around winter wheat seeds on blotting paper, first seven days (days 1 to 7)",1%
same,slug mortality,days 8 to 14,100%
same,slug mortality,first seven days,90%

# Source: patent US20050163815A1, “Use of plant materials as a terrestrial molluscicidal and/or molloscrepellant agent” (priority 2002, published 2005)
